Test results reported in ChEMBL document CHEMBL1201862, “PubChem BioAssay data set” (2004).
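A five-concentration, 48-hour dose response in 96-well plates underlies each endpoint, interpolated linearly between surrounding concentrations. The concentration for 50% growth inhibition is given as GI50.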 The source made the active and inactive calls. Rule as the data show it: active = GI50 up to about 1.1 µM and inactive = higher.

Columns and labels:
Assay in all cases: inhibition of tumour cell growth, NCI panel, 48 h
[1] = test system: OVCAR-4
[2] = test system: HOP-92
[3] = test system: SF-539
[4] = test system: MDA-MB-231
[5] = test system: NCI-H460
[6] = test system: MDA-N
[7] = test system: SK-MEL-5
[8] = test system: KM12
[9] = test system: HCC 2998
[10] = test system: DU-145
[11] = test system: NCI-H23
[12] = test system: Hs-578T
[13] = test system: A549
[14] = test system: SN12C
[15] = test system: ACHN
[16] = test system: TK-10
[17] = test system: U-251
[18] = test system: EKVX
[19] = test system: OVCAR-3
[20] = test system: RPMI-8226

Row | SMILES | GI50 [1] | GI50 [2] | GI50 [3] | GI50 [4] | GI50 [5] | GI50 [6] | GI50 [7] | GI50 [8] | GI50 [9] | GI50 [10] | GI50 [11] | GI50 [12] | GI50 [13] | GI50 [14] | GI50 [15] | GI50 [16] | GI50 [17] | GI50 [18] | GI50 [19] | GI50 [20]
1 | Nc1ccc(C(=O)Nc2ccccc2N)cc1 [DINALINE] | 20.2 µM (inactive) | 37.9 µM (inactive) | 30.4 µM (inactive) | 30.3 µM (inactive) | 18.5 µM (inactive) | 32.1 µM (inactive) | 16.3 µM (inactive) | 44.5 µM (inactive) | 17.5 µM (inactive) | 41.7 µM (inactive) | 29.1 µM (inactive) | 22.3 µM (inactive) | 38.6 µM (inactive) | 60 µM (inactive) | 31.7 µM (inactive) | 6.32 µM (inactive) | 17.7 µM (inactive) | 66.2 µM (inactive) | 29.1 µM (inactive) | 5.68 µM (inactive)
2 | CCOC(=O)c1ccc(-c2cccs2)n1C | 79.8 µM (inactive) | > 43.1 µM (inactive) | > 100 µM (inactive) | > 100 µM (inactive) | > 100 µM (inactive) | > 96.2 µM (inactive) | 33.7 µM (inactive) | > 100 µM (inactive) | > 100 µM (inactive) | > 100 µM (inactive) | > 86.7 µM (inactive) | 43.4 µM (inactive) | > 100 µM (inactive) | > 100 µM (inactive) | > 100 µM (inactive) | > 100 µM (inactive) | > 100 µM (inactive) | 48.5 µM (inactive) | > 100 µM (inactive) | 84.5 µM (inactive)
3 | O=c1c2nn3c(=O)n(-c4ccccc4)c(=O)c3nn2c(=O)n1-c1ccccc1 | > 100 µM (inactive) | > 100 µM (inactive) | > 100 µM (inactive) | > 100 µM (inactive) | > 100 µM (inactive) | > 100 µM (inactive) | > 100 µM (inactive) | > 100 µM (inactive) | > 100 µM (inactive) | > 100 µM (inactive) | > 100 µM (inactive) | > 100 µM (inactive) | > 100 µM (inactive) | > 100 µM (inactive) | > 100 µM (inactive) | > 100 µM (inactive) | > 100 µM (inactive) | > 100 µM (inactive) | > 100 µM (inactive) | > 100 µM (inactive)
4 | Cc1ccc2c(O)cc(-c3ccsc3)nc2n1 | > 29.9 µM (inactive) | > 24.6 µM (inactive) | 5.93 µM (inactive) | 11.5 µM (inactive) | 4.01 µM (inactive) | 0.454 µM (active) | 2.71 µM (inactive) | 4.33 µM (inactive) | 5.9 µM (inactive) | 9.79 µM (inactive) | 2.77 µM (inactive) | 3.82 µM (inactive) | 5.24 µM (inactive) | 5.83 µM (inactive) | 6.98 µM (inactive) | 26.5 µM (inactive) | 4.65 µM (inactive) | 16.9 µM (inactive) | 6.46 µM (inactive) | 2.2 µM (inactive)
5 | O=C(N/N=C\c1ccc([N+](=O)[O-])cc1)Nc1ccc2ccccc2c1 | 21.5 µM (inactive) | 28.2 µM (inactive) | 20.7 µM (inactive) | 26.1 µM (inactive) | 18.5 µM (inactive) | 40.7 µM (inactive) | 77.3 µM (inactive) | 23.3 µM (inactive) | 25.4 µM (inactive) | 71.3 µM (inactive) | 58.3 µM (inactive) | 26 µM (inactive) | 43.8 µM (inactive) | 45.5 µM (inactive) | 51.5 µM (inactive) | 37.5 µM (inactive) | 21.4 µM (inactive) | 44.6 µM (inactive) | > 100 µM (inactive) | 52.8 µM (inactive)
6 | O/N=C1\C=Cc2nn(-c3ccccc3)nc2\C1=N/O | 5.36 µM (inactive) | 8.26 µM (inactive) | 4.22 µM (inactive) | 4.06 µM (inactive) | 3.07 µM (inactive) | 7.96 µM (inactive) | 2.24 µM (inactive) | 4.55 µM (inactive) | 14.5 µM (inactive) | 1.07 µM (active) | 3.77 µM (inactive) | 1.85 µM (inactive) | 3.05 µM (inactive) | 7.24 µM (inactive) | 2.3 µM (inactive) | 17.8 µM (inactive) | 7.16 µM (inactive) | 5.41 µM (inactive) | 4.67 µM (inactive) | 3.71 µM (inactive)
7 | CC(=O)[C@H]1CC[C@H]2[C@@H]3CCC4=CC(=O)CC[C@]4(C)[C@H]3CC[C@]12C [PROGESTERONE] | 18.7 µM (inactive) | 25.7 µM (inactive) | 17.6 µM (inactive) | 17.2 µM (inactive) | 18.6 µM (inactive) | 16.7 µM (inactive) | 12.1 µM (inactive) | 16.7 µM (inactive) | 16.9 µM (inactive) | 28.1 µM (inactive) | 18.1 µM (inactive) | 3.3 µM (inactive) | 25.3 µM (inactive) | 18.6 µM (inactive) | 26 µM (inactive) | 23.9 µM (inactive) | 17.3 µM (inactive) | 1.16 µM (inactive) | 17.3 µM (inactive) | 3.24 µM (inactive)
8 | CO[C@H]1[C@H](O)[C@H](O[C@H]2CC[C@@]3(C)[C@H](CC[C@@H]4[C@@H]3CC[C@]3(C)[C@@H](C5=CC(=O)OC5)CC[C@]43O)C2)O[C@@H](C)[C@@H]1O [NERIIFOLIN] | 0.00028 µM (active) | 0.00123 µM (active) | 0.000569 µM (active) | 0.00165 µM (active) | 0.0006 µM (active) | < 0.0001 µM (active) | 0.000838 µM (active) | 0.00152 µM (active) | 0.0094 µM (active) | < 0.0001 µM (active) | 0.000394 µM (active) | < 0.0001 µM (active) | 0.000379 µM (active) | 0.000211 µM (active) | 0.000224 µM (active) | 0.000859 µM (active) | 0.00132 µM (active) | 0.000473 µM (active) | 0.000515 µM (active) | 0.00111 µM (active)
9 | CC(C)(C)OC(=O)N1C(C2=COc3ccccc3O2)=COc2ccccc21 | 36.8 µM (inactive) | 19.6 µM (inactive) | 19.3 µM (inactive) | 23.1 µM (inactive) | 28.9 µM (inactive) | 32.4 µM (inactive) | 19.1 µM (inactive) | 29.9 µM (inactive) | 16.2 µM (inactive) | 28 µM (inactive) | 29.7 µM (inactive) | 41.5 µM (inactive) | 32.7 µM (inactive) | 26.6 µM (inactive) | 24.7 µM (inactive) | 33.6 µM (inactive) | 32.1 µM (inactive) | 16.8 µM (inactive) | 21.1 µM (inactive) | 13.9 µM (inactive)
10 | COc1cc(-c2cn(S(=O)(=O)c3ccc(C)cc3)c3ccccc23)nc(-c2cn(S(=O)(=O)c3ccc(C)cc3)c3ccccc23)n1 | 1.99 µM (inactive) | 4.98 µM (inactive) | 0.222 µM (active) | 0.933 µM (active) | 0.388 µM (active) | 0.441 µM (active) | 0.566 µM (active) | 0.438 µM (active) | 0.516 µM (active) | 0.625 µM (active) | 0.245 µM (active) | 0.433 µM (active) | 0.473 µM (active) | 1.85 µM (inactive) | 0.927 µM (active) | 8.22 µM (inactive) | 0.354 µM (active) | 0.783 µM (active) | 0.586 µM (active) | 0.375 µM (active)
11 | O=[N+]([O-])c1cccc2nc3ccccc3c(NCCCn3ccnc3[N+](=O)[O-])c12 | 0.0104 µM (active) | 0.000187 µM (active) | 0.00137 µM (active) | 0.000168 µM (active) | < 0.0001 µM (active) | < 0.0001 µM (active) | < 0.0001 µM (active) | 0.000114 µM (active) | 0.000156 µM (active) | < 0.0001 µM (active) | 0.0003 µM (active) | 0.0169 µM (active) | 0.000122 µM (active) | 0.000282 µM (active) | 0.000161 µM (active) | 0.00367 µM (active) | 0.000213 µM (active) | 0.000298 µM (active) | 0.00309 µM (active) | < 0.0001 µM (active)
12 | O=C(/C=C/c1ccco1)CC(=O)/C=C/c1ccco1 | 15.5 µM (inactive) | 28.8 µM (inactive) | 13.9 µM (inactive) | > 10 µM (inactive) | 14.4 µM (inactive) | 8.04 µM (inactive) | 12.3 µM (inactive) | 28.8 µM (inactive) | 12.8 µM (inactive) | > 10 µM (inactive) | 12.2 µM (inactive) | 16.4 µM (inactive) | 14.4 µM (inactive) | 10.1 µM (inactive) | 14.8 µM (inactive) | 26.3 µM (inactive) | 13.7 µM (inactive) | 20.5 µM (inactive) | > 10 µM (inactive) | 8.38 µM (inactive)
13 | CCN(CC)c1nc(N(C)C)c2cc(OC)ccc2n1 | 43.6 µM (inactive) | 24.2 µM (inactive) | 21.3 µM (inactive) | 35.5 µM (inactive) | 20 µM (inactive) | 24.7 µM (inactive) | 17.4 µM (inactive) | 26.6 µM (inactive) | 18.5 µM (inactive) | 42.2 µM (inactive) | 29.6 µM (inactive) | 31.2 µM (inactive) | 27.9 µM (inactive) | 22.2 µM (inactive) | 33 µM (inactive) | 34.4 µM (inactive) | 27.5 µM (inactive) | 25.1 µM (inactive) | 35.6 µM (inactive) | 20.1 µM (inactive)
14 | O=C1C/C(=N/c2ccc(Cl)cc2)C(c2ccccc2)N1c1ccccc1 (stereo not given) | 14.3 µM (inactive) | 10.3 µM (inactive) | 14 µM (inactive) | 7.21 µM (inactive) | 29 µM (inactive) | 2.5 µM (inactive) | 5.9 µM (inactive) | 6.61 µM (inactive) | > 100 µM (inactive) | 6.61 µM (inactive) | 10 µM (inactive) | 6.12 µM (inactive) | 17.4 µM (inactive) | 23.9 µM (inactive) | 6.43 µM (inactive) | 23.9 µM (inactive) | 32.7 µM (inactive) | > 100 µM (inactive) | 2.99 µM (inactive) | 2.28 µM (inactive)
